Values after ≈ are worked out from the molar mass of the structure shown.
Assays:
[1] = tested on: APAE006 (strain of P. aeruginosa in which all efflux pumps are inactivated); test: microbe, parasite or virus in culture; type: cell-based; conditions: Pseudomonas aeruginosa, read-out: MIC APAE006, P. aeruginosa, all efflux pumps inactivated
Summary of the method: (§1)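 Minimum inhibitory concentrations followed CLSI broth microdilution guidelines: cation-adjusted Mueller-Hinton broth, 2-fold serial drug dilutions, final inoculum 3×10^5–7×10^5 CFU/mL, ambient air at 35° C. for 18-24 hours. Quality-control strains and levofloxacin monitored performance.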

[2] = tested on: APAE006 in the presence of 8 micrograms per milliliter of polymyxin B nonapeptide; type: cell-based, P. aeruginosa; conditions: in the presence of 8 micrograms per milliliter of polymyxin B nonapeptide
Summary of the method: as §1

[3] = tested on: AECO063 (ATCC25922 bearing an acrAB mutation); test: microbe, parasite or virus in culture; type: cell-based, E. coli; conditions: Escherichia coli, ATCC25922, read-out: MIC AECO063
Summary of the method: (§2)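 Strains were grown overnight at 35° C. on Mueller-Hinton agar, suspended to 0.5 McFarland and diluted to a final 3×10^5–7×10^5 CFU/mL. They were then exposed to 2-fold serial drug dilutions in cation-adjusted Mueller-Hinton broth and incubated 18-24 hours at 35° C.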

AECO001 (ATCC25922) = test: MIC broth microdilution, AECO001; type: cell-based, E. coli; conditions: Escherichia coli, ATCC25922, read-out: MIC AECO001
Summary of the method: as §2

[4] = tested on: ASAU001 (laboratory strain of S. aureus, ATCC29213); test: MIC broth microdilution, ASAU001; type: cell-based; conditions: Staphylococcus aureus, ATCC29213, read-out: MIC ASAU001
Summary of the method: as §2

APAE001 (ATCC27853) = test: MIC broth microdilution, APAE001; type: cell-based, P. aeruginosa; conditions: Pseudomonas aeruginosa, ATCC27853, read-out: MIC APAE001, APAE001 is ATCC27853
Summary of the method: as §2

[5] = tested on: AABA1060 (clinical isolate of Acinetobacter baumannii); test: MIC broth microdilution, AABA1060; type: cell-based; conditions: Acinetobacter baumannii, read-out: MIC AABA1060
Summary of the method: as §2

AECO001 HSA AGP = test: MIC broth microdilution, AECO001 HSA AGP; type: cell-based, E. coli; conditions: Escherichia coli
Summary of the method: as §2

Row | Structure (SMILES) | MIC [1] [µg/mL] | MIC APAE006 + PMBN [2] | MIC [3] [µg/mL] | MIC (AECO001 (ATCC25922)) [µg/mL] | MIC [4] [µg/mL] | MIC (APAE001 (ATCC27853)) [µg/mL] | MIC [5] [µg/mL] | MIC (AECO001 HSA AGP) [µg/mL]
1 | C[C@@H](O)[C@H](NC(=O)c1ccc(C=C(F)C#Cc2ccc(CN3CCOCC3)cc2)cc1)C(=O)NO [Example 109-1, 4-(2-fluoro-4-(4-(morpholinomethyl)phenyl)but-1-en-3-ynyl)-N-((2S,3R)-3-hydroxy-1-(hydroxyamino)-1-oxobutan-2-yl)benzamide] | < 2 | A (MIC's of 2.0 μg/mL or less = A) | < 2 | < 2 | > 64 | 2 to 16 (≈ 4.15 to 33.2 µM) | 2 to 16 (≈ 4.15 to 33.2 µM) | 2 to 16 (≈ 4.15 to 33.2 µM)
2 | C[C@@H](O)[C@H](NC(=O)c1ccc(C#CC#Cc2ccc(CO)cc2)cc1)C(=O)NO [Example 82-14] | < 2 | A (MIC's of 2.0 μg/mL or less = A) | < 2 | < 2 | 16 to 64 (≈ 40.8 to 163 µM) | < 2 | < 2 | 16 to 64 (≈ 40.8 to 163 µM)
3 | C[C@@H](N)[C@H](NC(=O)c1ccc(/C=C/C#Cc2ccccc2Cl)cc1)C(=O)NO [Example 114-5] | < 2 | A (MIC's of 2.0 μg/mL or less = A) | < 2 | < 2 | 2 to 16 (≈ 5.03 to 40.2 µM) | 2 to 16 (≈ 5.03 to 40.2 µM) | < 2 | 2 to 16 (≈ 5.03 to 40.2 µM)
4 | O=C(NC(C(=O)NO)C1CCOCC1)c1ccc(C#Cc2ccc(CN3CCOCC3)cc2)cc1 (centres unmarked) [Example 67-5, N-[hydroxycarbamoyl-(tetrahydro-pyran-4-yl)-methyl]-4-(4-morpholin-4-ylmethyl-phenylethynyl)-benzamide] | < 2 | A (MIC's of 2.0 μg/mL or less = A) | < 2 | < 2 | > 64 | 2 to 16 (≈ 4.19 to 33.5 µM) | 16 to 64 (≈ 33.5 to 134 µM) | 2 to 16 (≈ 4.19 to 33.5 µM)
5 | C[C@@H](N)[C@H](NC(=O)c1ccc(C#Cc2cccnc2)cc1)C(=O)NO [Example 133-9] | < 2 | A (MIC's of 2.0 μg/mL or less = A) | 2 to 16 (≈ 5.91 to 47.3 µM) | 16 to 64 (≈ 47.3 to 189 µM) | > 64 | 2 to 16 (≈ 5.91 to 47.3 µM) | 16 to 64 (≈ 47.3 to 189 µM) | 16 to 64 (≈ 47.3 to 189 µM)
6 | C[C@@H](N)[C@H](NC(=O)c1ccc(C#Cc2ccc(CCO)cc2)cc1)C(=O)NO [Example 120-3] | < 2 | A (MIC's of 2.0 μg/mL or less = A) | < 2 | < 2 | > 64 | < 2 | 2 to 16 (≈ 5.24 to 41.9 µM) | 2 to 16 (≈ 5.24 to 41.9 µM)
7 | C[C@@H](N)[C@H](NC(=O)c1ccc(/C=C/C#Cc2ccccc2F)cc1)C(=O)NO [Example 114-3] | < 2 | A (MIC's of 2.0 μg/mL or less = A) | < 2 | < 2 | 16 to 64 (≈ 41.9 to 168 µM) | < 2 | < 2 | 2 to 16 (≈ 5.24 to 41.9 µM)
8 | C[C@@H](N)[C@H](NC(=O)c1ccc(C#Cc2ccc(CN3CCC(O)C3)cc2)cc1)C(=O)NO (some centres unmarked) [Example 115-6] | < 2 | A (MIC's of 2.0 μg/mL or less = A) | < 2 | 2 to 16 (≈ 4.58 to 36.7 µM) | > 64 | < 2 | 16 to 64 (≈ 36.7 to 147 µM) | 2 to 16 (≈ 4.58 to 36.7 µM)
9 | C[C@@H](N)[C@H](NC(=O)c1ccc(C#Cc2ccc(CN3CCN(S(C)(=O)=O)CC3)cc2)cc1)C(=O)NO [Example 115-7] | < 2 | A (MIC's of 2.0 μg/mL or less = A) | < 2 | < 2 | > 64 | 2 to 16 (≈ 3.89 to 31.2 µM) | 2 to 16 (≈ 3.89 to 31.2 µM) | 2 to 16 (≈ 3.89 to 31.2 µM)
10 | CCNCc1ccc(C#Cc2ccc(C(=O)N[C@H](C(=O)NO)[C@@H](C)N)cc2)cc1 [Example 119-6] | < 2 | A (MIC's of 2.0 μg/mL or less = A) | < 2 | 2 to 16 (≈ 5.07 to 40.6 µM) | 16 to 64 (≈ 40.6 to 162 µM) | < 2 | 16 to 64 (≈ 40.6 to 162 µM) | 2 to 16 (≈ 5.07 to 40.6 µM)
11 | CC(C)(O)[C@H](NC(=O)c1ccc(C#CC#Cc2ccc(CO)cc2)cc1)C(=O)NO [Example 82-15] | < 2 | A (MIC's of 2.0 μg/mL or less = A) | < 2 | < 2 | 16 to 64 (≈ 39.4 to 157 µM) | < 2 | < 2 | 16 to 64 (≈ 39.4 to 157 µM)
12 | C[C@@H](N)[C@H](NC(=O)c1ccc(C#Cc2ccc(CN3CCN(C)CC3)cc2)cc1)C(=O)NO [Example 115-4] | < 2 | A (MIC's of 2.0 μg/mL or less = A) | < 2 | 2 to 16 (≈ 4.45 to 35.6 µM) | > 64 | < 2 | 16 to 64 (≈ 35.6 to 142 µM) | 16 to 64 (≈ 35.6 to 142 µM)
13 | C[C@@H](N)[C@H](NC(=O)c1ccc(C#CC#Cc2cccnc2)cc1)C(=O)NO [Example 88-3] | < 2 | A (MIC's of 2.0 μg/mL or less = A) | < 2 | < 2 | > 64 | < 2 | 2 to 16 (≈ 5.52 to 44.2 µM) | 2 to 16 (≈ 5.52 to 44.2 µM)
14 | C[C@@H](NCC(=O)N[C@H](C)[C@H](NC(=O)c1ccc(C#C/C=C/c2ccccc2)cc1)C(=O)NO)c1ccccc1 [Example 105-5] | 2 to 16 (≈ 3.81 to 30.5 µM) | A (MIC's of 2.0 μg/mL or less = A) | < 2 | 2 to 16 (≈ 3.81 to 30.5 µM) | 16 to 64 (≈ 30.5 to 122 µM) | 16 to 64 (≈ 30.5 to 122 µM) | 16 to 64 (≈ 30.5 to 122 µM) | 2 to 16 (≈ 3.81 to 30.5 µM)
15 | C[C@H](O)[C@H](NC(=O)c1ccc(/C=C/C#Cc2ccc(CNC3CC3)cc2)cc1)C(=O)NO [Example 113-4] | < 2 | A (MIC's of 2.0 μg/mL or less = A) | < 2 | < 2 | > 64 | 2 to 16 (≈ 4.61 to 36.9 µM) | 2 to 16 (≈ 4.61 to 36.9 µM) | 2 to 16 (≈ 4.61 to 36.9 µM)
16 | C[C@@H](N)[C@H](NC(=O)c1ccc(C#CC#Cc2cccc(Cl)c2)cc1)C(=O)NO [Example 82-9] | < 2 | A (MIC's of 2.0 μg/mL or less = A) | < 2 | < 2 | 2 to 16 (≈ 5.05 to 40.4 µM) | 2 to 16 (≈ 5.05 to 40.4 µM) | 2 to 16 (≈ 5.05 to 40.4 µM) | 2 to 16 (≈ 5.05 to 40.4 µM)
17 | C[C@@H](O)[C@H](NC(=O)c1ccc(CCc2ccc(CN3CCOCC3)cc2)cc1)C(=O)NO [Example 137-8] | < 2 | A (MIC's of 2.0 μg/mL or less = A) | < 2 | 2 to 16 (≈ 4.53 to 36.2 µM) | 16 to 64 (≈ 36.2 to 145 µM) | 2 to 16 (≈ 4.53 to 36.2 µM) | 16 to 64 (≈ 36.2 to 145 µM) | 16 to 64 (≈ 36.2 to 145 µM)
18 | CCOCc1ccc(C#C/C=C/c2ccc(C(=O)N[C@H](C(=O)NO)[C@@H](C)N)cc2)cc1 [Example 113-10] | < 2 | A (MIC's of 2.0 μg/mL or less = A) | < 2 | < 2 | 16 to 64 (≈ 38 to 152 µM) | 2 to 16 (≈ 4.74 to 38 µM) | 2 to 16 (≈ 4.74 to 38 µM) | 2 to 16 (≈ 4.74 to 38 µM)
19 | O=C(N[C@H](C(=O)NO)c1cccs1)c1ccc(C#Cc2ccc(CN3CCOCC3)cc2)cc1 [Example 67-7] | < 2 | A (MIC's of 2.0 μg/mL or less = A) | < 2 | < 2 | > 64 | 2 to 16 (≈ 4.21 to 33.6 µM) | 2 to 16 (≈ 4.21 to 33.6 µM) | 2 to 16 (≈ 4.21 to 33.6 µM)

— US9617256B2 (priority 2007, dated 2017)
